Data reported in article PMC11211886 (Frontiers in Pharmacology, 2024).
Where “and” joins values, the source holds several entries; their conditions need not be identical. Identical values can stand only once.

What was measured:
CYP2C19 = target: T1, CYP2C19 (Homo sapiens, UniProt P33261); test: Reversible CYP inhibition in HLM, CYP2C19 (S-mephenytoin); assay type: in vitro ADME; settings: for enzyme activity remaining: CYP2C19, HLM
T1 construct: tissue Life Technologies (Durham, NC, USA); host or cells: human liver microsomes
Description: The markers used to determine the activities of CYP isoforms were phenacetin O-deethylation for CYP1A2 (probe substrate: 50 µM phenacetin), bupropion hydroxylation for CYP2B6 (probe substrate: 70 µM bupropion), paclitaxel 6α-hydroxylation for CYP2C8 (probe substrate: 10 µM paclitaxel), diclofenac 4′-hydroxylation for CYP2C9 (probe substrate: 5 µM diclofenac), S-(+)-mephenytoin 4′-hydroxylation for CYP2C19 (probe substrate: 20 µM S-(+)-mephenytoin), dextromethorphan O-demethylation for CYP2D6 (probe substrate: 6 µM dextromethorphan), chlorzoxazone 6′-hydroxylation for CYP2E1 (probe substrate: 70 µM chlorzoxazone), and testosterone 6β-hydroxylation and midazolam 1′-hydroxylation for CYP3A4/5 (probe substrate: 45 µM testosterone and 5 µM midazolam). […] Alpha-naphthoflavone (0.04 µM), 2-phenyl-2-(1-piperidinyl)propane (5 µM), quercetin (1 µM), sulfaphenazole (0.5 µM), ticlopidine (4 µM), quinidine (0.2 µM), diethyldithiocarbamate (20 µM), and ketoconazole (0.05 µM) were used as positive inhibitors of CYP1A2, 2B6, 2C8, 2C9, 2C19, 2D6, 2E1, and 3A4, respectively. The vehicle control was prepared in the same composition as inhibitor solutions but free of inhibitors. The concentrations of probe substrates were close to Km values that were determined in-house and within the range recommended by the FDA ([Huang et al., 2007]). Reaction mixtures were incubated at 37°C for 5, 20, or 30 min, depending on the probe substrates of CYP isoforms. The reactions were terminated by adding cold acetonitrile containing IS, and the terminated incubation mixtures were centrifuged at 3,000 g for 10 min before LC-MS/MS analysis.

CYP1A2 [1] = target: T2, CYP1A2 (Homo sapiens, UniProt P05177); test: Time-dependent CYP inhibition in HLM, CYP1A2; assay type: in vitro ADME; settings: 10 μM, 30 min pre-incubation with NADPH
T2 construct: tissue Life Technologies (Durham, NC, USA); host or cells: human liver microsomes
T2 sequence (P05177 1-516): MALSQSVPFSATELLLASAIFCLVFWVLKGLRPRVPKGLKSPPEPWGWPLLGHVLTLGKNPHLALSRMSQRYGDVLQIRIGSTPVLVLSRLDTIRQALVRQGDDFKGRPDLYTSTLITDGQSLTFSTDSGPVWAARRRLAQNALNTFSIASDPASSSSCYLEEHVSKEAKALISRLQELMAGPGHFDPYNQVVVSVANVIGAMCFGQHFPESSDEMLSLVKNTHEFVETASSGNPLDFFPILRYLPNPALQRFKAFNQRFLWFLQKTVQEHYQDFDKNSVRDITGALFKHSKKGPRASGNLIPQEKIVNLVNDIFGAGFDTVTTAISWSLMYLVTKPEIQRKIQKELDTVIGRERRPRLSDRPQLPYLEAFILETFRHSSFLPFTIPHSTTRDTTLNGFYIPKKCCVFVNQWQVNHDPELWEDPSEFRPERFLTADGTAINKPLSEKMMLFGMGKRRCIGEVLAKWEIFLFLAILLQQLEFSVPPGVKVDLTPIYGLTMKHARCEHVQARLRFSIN
Description: The procedure of time-dependent CYP inhibition was similar to that used for CYP reversible inhibition, as mentioned above, except that a pre-incubation step was added. […] Another appropriate volume of the NADPH-regenerating system and probe substrate were added to initiate the CYP isoform enzyme activity test step. For this step, the incubation period was 10 min, except for CYP2B6, CYP2C8, and CYP3A4/5 (probe substrate: midazolam), which was 3 min to make sure the reaction was under initial linear rates. After incubation for the designated time periods at 37°C, the ice-cold acetonitrile containing IS was added to quench the reaction. […] (Ainactivator/[…] represents the enzyme activity remaining due to the inhibition by the diluted inactivator in the enzyme activity test step, and (Ainactivator/[…] represents the remaining enzyme activity due to pre-incubation loss plus inhibition by the diluted inactivator in the enzyme activity test step.

CYP1A2 [2] = test: CYP induction in human hepatocytes, CYP1A2 enzyme activity
Description: (§1) […] […] […] Enzyme activity for each CYP isoform was reported as a fold change over vehicle control and the percent of positive control (detailed calculation in Supplementary 1.1). Hepatocytes were harvested with a lysis buffer from RNeasy 96 Kit (Qiagen Inc., Germantown, MD, USA) to isolate RNA, which was analyzed by real-time quantitative polymerase chain reaction (RT-PCR). […] Emax (the maximal observed induction) and EC50 (the concentration that supports half-maximal induction) were estimated by non-linear regression of fold increase in CYP mRNA expression versus concentration plots.
The fold of vehicle control and the percent of positive control were calculated with the formulas below:
Fold of vehicle control = CYPs activity of test compound (or positive control) treated sample / CYPs activity of vehicle control treated sample
% of positive control = [(fold change in treated sample)-1] / [(fold change in positive control)-1] × 100
Based on the enzyme activity, a minimum of 2-fold increase compared to vehicle control for the positive control and ≥40% of the positive control for the test article was considered as the cutoff for a positive signal in in vitro induction assay.

[3] = Amdizalisib remaining/concentration after the last incubation in hepatocyte induction assays; settings: for Amdizalisib concentration: CYP2C induction assay; for percentage of amdizalisib remaining: 5 h after last incubation
Description: as §1

T1 sequence (P33261 whole entry): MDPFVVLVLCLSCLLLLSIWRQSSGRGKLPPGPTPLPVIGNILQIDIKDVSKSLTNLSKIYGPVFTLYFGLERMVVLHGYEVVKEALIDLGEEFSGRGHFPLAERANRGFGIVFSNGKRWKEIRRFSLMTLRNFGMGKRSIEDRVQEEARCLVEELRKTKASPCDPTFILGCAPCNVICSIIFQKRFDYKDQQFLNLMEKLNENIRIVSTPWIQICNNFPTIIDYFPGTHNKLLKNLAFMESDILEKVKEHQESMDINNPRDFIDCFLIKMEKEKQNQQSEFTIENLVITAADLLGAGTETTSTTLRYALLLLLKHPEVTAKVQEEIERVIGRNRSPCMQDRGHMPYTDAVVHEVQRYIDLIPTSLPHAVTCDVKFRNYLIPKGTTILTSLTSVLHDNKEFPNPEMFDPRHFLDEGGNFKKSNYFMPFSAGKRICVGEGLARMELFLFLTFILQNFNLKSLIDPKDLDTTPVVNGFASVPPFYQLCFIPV

C[C@H](Nc1ncnc(N)c1C#N)c1cc2ncc(Cl)n2nc1-c1ccccc1 [Amdizalisib]
enzyme activity remaining (CYP2C19; 0.08 μM): 97.1% and 111% | enzyme activity remaining (CYP2C19; 0.4 μM): 105% | enzyme activity remaining (CYP2C19; 0.4 μM, listed as amdizalisib): 99.5% | enzyme activity remaining (CYP2C19; 2 μM): 102% and 98.0% | enzyme activity remaining (CYP2C19; 10 μM): 96.6% and 88.1% | enzyme activity remaining (CYP2C19; 50 μM): 68.6% and 65.9% | IC50 (CYP2C19; HLM, reversible, without pre-incubation): > 50 µM | activity loss of CYP1A2 (CYP1A2 [1]): less than 10% | Enzyme activity Percent of PC (%) (CYP1A2 [2]; CYP1A2, donor seven, 1 µM): 1.00% | Enzyme activity Percent of PC (%) (CYP1A2 [2]; CYP1A2, donor seven, 3 µM): -12.5% | Enzyme activity Percent of PC (%) (CYP1A2 [2]; CYP1A2, donor seven, 10 µM): 16.5% | Enzyme activity Percent of PC (%) (CYP1A2 [2]; CYP1A2, donor seven, 20 µM): 9.00% | Enzyme activity Percent of PC (%) (CYP1A2 [2]; CYP1A2, donor seven, 30 µM): 16.6% | Enzyme activity Percent of PC (%) (CYP1A2 [2]; CYP1A2, donor six, 1 µM): 2.40% | Enzyme activity Percent of PC (%) (CYP1A2 [2]; CYP1A2, donor six, 3 µM): 3.90% | Enzyme activity Percent of PC (%) (CYP1A2 [2]; CYP1A2, donor six, 10 µM): 7.60% | Enzyme activity Percent of PC (%) (CYP1A2 [2]; CYP1A2, donor six, 20 µM): 14.9% | Enzyme activity Percent of PC (%) (CYP1A2 [2]; CYP1A2, donor six, 30 µM): 7.30% | Enzyme activity Percent of PC (%) (CYP1A2 [2]; CYP1A2, donor two, 1 µM): 1.50% | Enzyme activity Percent of PC (%) (CYP1A2 [2]; CYP1A2, donor two, 3 µM): 0.30% | Enzyme activity Percent of PC (%) (CYP1A2 [2]; CYP1A2, donor two, 10 µM): 7.30% | Enzyme activity Percent of PC (%) (CYP1A2 [2]; CYP1A2, donor two, 20 µM): 8.90% | Enzyme activity Percent of PC (%) (CYP1A2 [2]; CYP1A2, donor two, 30 µM): 14.6% | induction of CYP1A2 enzyme activity (CYP1A2 [2]; up to 30.0 µM, all three donors): not considered an inducer | Amdizalisib concentration ([3]; nominal 3 µM, donor eight, 1h): 3.57 ± 0.26 µM | Amdizalisib concentration ([3]; nominal 3 µM, donor four, 1h): 3.38 ± 0.33 µM | Amdizalisib concentration ([3]; nominal 20 µM, donor eight, 1h): 23.3 ± 0.27 µM | Amdizalisib concentration ([3]; nominal 20 µM, donor eight, 4h): 21.2 ± 2.3 µM | Amdizalisib concentration ([3]; nominal 20 µM, donor eight, 24h): 21.9 ± 0.27 µM | percentage of amdizalisib remaining ([3]; donor seven, 30 µM): 105.3% | percentage of amdizalisib remaining ([3]; donor two, 10 µM): 105.8% | percentage of amdizalisib remaining ([3]; donor two, 30 µM): 104.3%
